Reference: patent publication US12461078B2, “Compounds for use in system suitability testing of inert LC systems and columns” (priority 2020, dated 2025)

Key:
[1] = Hydrolytic and storage stability of nucleotide analog; type: physicochemical
[2] = cited from earlier work

Row | SMILES | resistance to hydrolysis / storage stability [1] | Log P [2]
1 | Nc1ncnc2c1ncn2[C@@H]1O[C@H](COP(=O)(O)CP(=O)(O)O)[C@@H](O)[C@H]1O [AMPcP, Adenosine 5′-(α, β-methylene)diphosphate] | resistant to hydrolysis and be stable for long-term storage and repeat use | −4.8
2 | Nc1ncnc2c1ncn2[C@@H]1O[C@H](COP(=O)(O)OP(=O)(O)OP(=O)(O)O)[C@@H](O)[C@H]1O [ATP, adenosine-5′-triphosphate] |  | −5.5
